Results published in patent US20180099931A1 (AbbVie S.à.r.l., priority 2016, published 2018).
Where two headings read alike, the source gives them in different places.

Molecular target: T1, F508delCFTR (Homo sapiens, UniProt P13569, DEL508-508)
T1 construct: expressed in transfected cells; host or cells: CFBE41o- human lung-derived epithelial cells (CFBE4lo-F508delCFTR-HRP), doxycycline-inducible
Assay: Cell Surface Expression-Horse Radish Peroxidase (CSE-HRP) Assay;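 as to Maximum % activity (with co-corrector): co-corrector and positive control are both the same reference corrector at 2 µM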;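 as to Maximum % activity (without co-corrector): percent of the 2 µM on-plate positive control corrector response above DMSO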
Assay type: cell-based
Settings: for Emax / Maximum % activity (with co-corrector): maximum at any tested concentration, normalized to on-plate positive control; for Emax: read-out: Maximum % activity (without co-corrector)
Procedure: Cell Surface Expression-Horse Radish Peroxidase (CSE-HRP) Assay;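 as to Maximum % activity (with co-corrector): co-corrector and positive control are both the same reference corrector at 2 µM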;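 as to Maximum % activity (without co-corrector): percent of the 2 µM on-plate positive control corrector response above DMSO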
The development was achieved by expressing the F508delCFTR mutation along with a horseradish peroxidase (HRP) in the fourth exofacial loop, and then measuring the HRP activity using luminescence readout from these cells, CFBE4lo-F508delCFTR-HRP, that were incubated overnight with the test corrector compounds, either without or with the co-corrector. […] The test compounds were then added either without or with a co-corrector at the required concentrations and further incubated for 18-24 hours at 33° C. The highest concentration tested was 20 μM with an 8-point concentration response curve using a 3-fold dilution in both the test compound without or with the co-corrector. Three replicate plates were run to determine one EC50. All plates contained negative controls (dimethyl sulfoxide, DMSO) and positive control (2 μM of 3-[(2R,4R)-4-({[1-(2,2-difluoro-1,3-benzodioxol-5-yl)cyclopropyl]carbonyl}amino)-7-methoxy-3,4-dihydro-2H-chromen-2-yl]benzoic acid) as well as on-plate concentration response of the positive control. […] The raw counts from the experiment were analyzed using Accelrys® Assay Explorer v3.3.
1−[3*SDPositive Control+3*SDNegative Control/Absolute(MeanPositive Control−MeanNegative Control)]
wherein “SD” is standard deviation.
The % activity measured at each of the 8 test concentrations of the test compound added either without or with a co-corrector (2 μM of 3-[(2R,4R)-4-({[1-(2,2-difluoro-1,3-benzodioxol-5-yl)cyclopropyl]carbonyl}amino)-7-methoxy-3,4-dihydro-2H-chromen-2-yl]benzoic acid) was normalized to the on-plate positive control using the following formulae:
% activity(Test compound without co-corrector)=[(test compound without co-corrector response−DMSO response)/(positive control response−DMSO response)]*100
% activity(Test compound with co-corrector)=[(test compound with co-corrector response−DMSO response)/(positive control response−DMSO response)]*100
The maximum % activity achieved for the test compound either without or with a co-corrector at any tested concentration is presented in Table 4 along with the respective EC50's calculated using the following general sigmoidal curve with variable Hill slope equation (described as Model 42 in the Accelrys® Assay Explorer v3.3 software):
General sigmoidal curve with concentration, response, top, bottom, EC50 and Hill slope. This model describes a sigmoidal curve with an adjustable baseline, a. The equation can be used to fit curves where response is either increasing or decreasing with respect to the independent variable, “x”.
“x” is a concentration of drug under test. “y” is the response. “a” is the maximum response, and “d” is the minimum response “c” is the inflection point (EC50) for the curve. That is, “y” is halfway between the lower and upper asymptotes when x=c. “b” is the slope-factor or Hill coefficient. The sign of b is positive when the response increases with increasing dose and is negative when the response decreases with increasing dose (inhibition).

[1] = test compound without co-corrector
[2] = test compound without co-corrector, read-out: EC50 (without co-corrector)
[3] = with co-corrector (2 μM of 3-[(2R,4R)-4-({[1-(2,2-difluoro-1,3-benzodioxol-5-yl)cyclopropyl]carbonyl}amino)-7-methoxy-3,4-dihydro-2H-chromen-2-yl]benzoic acid), read-out: EC50 (with co-corrector)

T1 sequence (P13569 with tags, fused parts or gaps DEL508-508): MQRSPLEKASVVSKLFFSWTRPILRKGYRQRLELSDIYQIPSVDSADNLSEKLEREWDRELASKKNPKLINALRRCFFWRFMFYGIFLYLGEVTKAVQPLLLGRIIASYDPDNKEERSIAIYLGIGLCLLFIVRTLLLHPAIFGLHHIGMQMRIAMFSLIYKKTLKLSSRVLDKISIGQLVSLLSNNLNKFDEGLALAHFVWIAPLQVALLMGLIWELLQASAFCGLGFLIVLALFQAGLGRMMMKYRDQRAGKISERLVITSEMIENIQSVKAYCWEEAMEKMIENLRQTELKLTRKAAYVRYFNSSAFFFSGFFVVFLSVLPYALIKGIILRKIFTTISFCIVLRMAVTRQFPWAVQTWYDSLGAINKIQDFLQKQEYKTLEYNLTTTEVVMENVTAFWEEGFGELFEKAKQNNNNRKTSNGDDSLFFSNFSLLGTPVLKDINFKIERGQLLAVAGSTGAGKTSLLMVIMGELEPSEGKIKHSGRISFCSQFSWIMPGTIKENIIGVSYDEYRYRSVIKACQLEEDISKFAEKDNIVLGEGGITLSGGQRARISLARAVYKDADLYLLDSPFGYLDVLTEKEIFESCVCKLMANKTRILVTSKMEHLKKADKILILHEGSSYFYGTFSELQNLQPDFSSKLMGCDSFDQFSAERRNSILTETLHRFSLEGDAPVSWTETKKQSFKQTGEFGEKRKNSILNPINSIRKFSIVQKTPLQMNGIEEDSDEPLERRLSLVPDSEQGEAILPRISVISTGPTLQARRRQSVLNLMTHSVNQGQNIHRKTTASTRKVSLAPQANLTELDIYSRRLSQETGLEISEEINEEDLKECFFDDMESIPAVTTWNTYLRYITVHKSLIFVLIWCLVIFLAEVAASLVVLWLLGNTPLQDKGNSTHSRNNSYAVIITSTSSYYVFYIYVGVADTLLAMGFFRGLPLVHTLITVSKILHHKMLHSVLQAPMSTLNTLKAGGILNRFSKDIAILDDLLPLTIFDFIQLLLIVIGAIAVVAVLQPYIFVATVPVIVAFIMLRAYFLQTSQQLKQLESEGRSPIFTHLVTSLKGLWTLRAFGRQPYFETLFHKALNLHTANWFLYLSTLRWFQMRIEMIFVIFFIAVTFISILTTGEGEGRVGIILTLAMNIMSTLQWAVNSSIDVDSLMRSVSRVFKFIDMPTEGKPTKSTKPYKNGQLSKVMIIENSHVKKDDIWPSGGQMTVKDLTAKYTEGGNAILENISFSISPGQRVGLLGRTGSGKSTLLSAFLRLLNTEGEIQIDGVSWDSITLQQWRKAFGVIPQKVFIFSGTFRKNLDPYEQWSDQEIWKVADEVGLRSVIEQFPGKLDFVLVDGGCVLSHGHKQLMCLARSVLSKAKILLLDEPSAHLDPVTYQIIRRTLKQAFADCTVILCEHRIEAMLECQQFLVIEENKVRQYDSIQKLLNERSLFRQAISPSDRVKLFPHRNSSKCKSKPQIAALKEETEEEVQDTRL

Cc1cc(C(F)(F)F)cc(N[C@@H]2[C@@H](C(C)(C)C)[C@H](C(=O)O)N(C(=O)OC(C)C)[C@@H]2c2cccnc2N(C)C)n1 (racemic) [III-93]
Emax [1]: < 100% | EC50 [2]: 1000 to 10000 nM | Maximum % activity (with co-corrector) (with co-corrector (2 μM of 3-[(2R,4R)-4-({[1-(2,2-difluoro-1,3-benzodioxol-5-yl)cyclopropyl]carbonyl}amino)-7-methoxy-3,4-dihydro-2H-chromen-2-yl]benzoic acid)): ++ (≥150 and <350) | EC50 [3]: 1000 to 10000 nM

COc1ccc(Cl)cc1CN[C@@H]1[C@@H](C(C)(C)C)[C@H](C(=O)O)N(C(=O)C2CCCCC2)[C@@H]1c1cccnc1N(C)C (racemic) [III-94]
Emax [1]: 100 to 200% | EC50 [2]: 1000 to 10000 nM | EC50 [3]: 1000 to 10000 nM | Maximum % activity (with co-corrector) (with co-corrector (2 μM)): +++ (≥350)

COc1cccc([C@H]2[C@@H](Nc3cc(C(F)(F)F)cc(C)n3)[C@H](C(C)(C)C)[C@@H](C(=O)O)N2C(=O)C2CCCCC2)n1 (racemic) [III-97]
Emax [1]: < 100% | EC50 [2]: 1000 to 10000 nM | EC50 [3]: 1000 to 10000 nM | Maximum % activity (with co-corrector) (with co-corrector (2 μM)): ++ (≥150 and <350)

Cc1cc(C(F)(F)F)cc(N[C@@H]2[C@@H](C(C)(C)C)[C@H](C(=O)O)N(C(=O)C3CCC(F)(F)CC3)[C@@H]2c2ccccc2)n1 (racemic) [III-104]
Emax [1]: < 100% | EC50 [2]: > 10000 nM | EC50 [3]: 1000 to 10000 nM | Maximum % activity (with co-corrector) (with co-corrector (2 μM)): ++ (≥150 and <350)

COc1cc(C(F)(F)F)ccc1CN[C@@H]1[C@@H](C(C)(C)C)[C@H](C(=O)O)N(C(=O)C2CCC3(CC2)CC3)[C@@H]1c1ccccc1 (racemic) [III-105]
Emax [1]: < 100% | EC50 [2]: 1000 to 10000 nM | EC50 [3]: 1000 to 10000 nM | Maximum % activity (with co-corrector) (with co-corrector (2 μM)): ++ (≥150 and <350)

COc1ccc(C(F)(F)F)c(CN[C@@H]2[C@@H](C(C)(C)C)[C@H](C(=O)O)N(C(=O)C3CCCCC3)[C@@H]2c2ccccc2)c1 (racemic) [III-106]
Emax [1]: < 100% | EC50 [2]: 1000 to 10000 nM | EC50 [3]: 1000 to 10000 nM | Maximum % activity (with co-corrector) (with co-corrector (2 μM)): ++ (≥150 and <350)

COc1ccc(C(C)(C)C)cc1CN[C@@H]1[C@@H](C(C)(C)C)[C@H](C(=O)O)N(C(=O)C2CCCCC2)[C@@H]1c1ccccc1 (racemic) [III-107]
Emax [1]: > 200% | EC50 [2]: < 1000 nM | EC50 [3]: < 1000 nM | Maximum % activity (with co-corrector) (with co-corrector (2 μM)): +++ (≥350)

CC(C)(C)[C@@H]1[C@@H](NCc2cc(F)ccc2S(C)(=O)=O)[C@@H](c2ccccc2)N(C(=O)C2CCCCC2)[C@H]1C(=O)O (racemic) [III-108]
Emax [1]: < 100% | EC50 [2]: > 10000 nM | EC50 [3]: 1000 to 10000 nM | Maximum % activity (with co-corrector) (with co-corrector (2 μM)): + (<150)

CC(C)(C)[C@@H]1[C@@H](NCc2cc(Br)ccc2C#N)[C@@H](c2ccccc2)N(C(=O)C2CCCCC2)[C@H]1C(=O)O (racemic) [III-109]
Emax [1]: < 100% | EC50 [2]: > 10000 nM | EC50 [3]: 1000 to 10000 nM | Maximum % activity (with co-corrector) (with co-corrector (2 μM)): ++ (≥150 and <350)

Cc1cc(C(F)(F)F)cc(N[C@@H]2[C@@H](C(C)(C)C)[C@H](C(=O)O)N(C(=O)[C@H]3C[C@H]4CC[C@@H]3C4)[C@@H]2c2ccccc2)n1 (racemic) [III-110]
Emax [1]: < 100% | EC50 [2]: > 10000 nM | EC50 [3]: 1000 to 10000 nM | Maximum % activity (with co-corrector) (with co-corrector (2 μM)): ++ (≥150 and <350)

COc1cc(Cl)cnc1N[C@@H]1[C@@H](C(C)(C)OC)[C@H](C(=O)O)N(C(=O)C2CCCCC2)[C@@H]1c1ccccc1 (racemic) [III-111]
Emax [1]: < 100% | EC50 [2]: 1000 to 10000 nM | EC50 [3]: 1000 to 10000 nM | Maximum % activity (with co-corrector) (with co-corrector (2 μM)): ++ (≥150 and <350)

COc1cc(C(F)(F)F)ccc1CN[C@@H]1[C@@H](C(C)(C)C)[C@H](C(=O)O)N(C(=O)C2COCCO2)[C@@H]1c1ccccc1 (mixture of isomers) [III-113]
Emax [1]: < 100% | EC50 [2]: 1000 to 10000 nM | EC50 [3]: 1000 to 10000 nM | Maximum % activity (with co-corrector) (with co-corrector (2 μM)): ++ (≥150 and <350)

COc1cc(C(F)(F)F)ccc1CN[C@@H]1[C@@H](C(C)(C)C)[C@H](C(=O)O)N(C(=O)OC2CCC2)[C@@H]1c1ccccc1 (racemic) [III-114]
Emax [1]: 100 to 200% | EC50 [2]: 1000 to 10000 nM | EC50 [3]: 1000 to 10000 nM | Maximum % activity (with co-corrector) (with co-corrector (2 μM)): +++ (≥350)

COc1ncc(C(F)(F)F)cc1CN[C@@H]1[C@@H](C(C)(C)OC)[C@H](C(=O)O)N(C(=O)C2CCCCC2)[C@@H]1c1ccccc1 (racemic) [III-116]
Emax [1]: 100 to 200% | EC50 [2]: 1000 to 10000 nM | EC50 [3]: < 1000 nM | Maximum % activity (with co-corrector) (with co-corrector (2 μM)): +++ (≥350)

COc1cc(Cl)ccc1CN[C@H]1[C@H](C(C)(C)C)[C@@H](C(=O)O)N(C(=O)C2CCCCC2)[C@H]1c1ncccc1OC (racemic) [III-143]
Emax [1]: < 100% | EC50 [2]: > 10000 nM | EC50 [3]: > 10000 nM | Maximum % activity (with co-corrector) (with co-corrector (2 μM)): + (<150)

COc1cc(C(F)(F)F)ccc1CN[C@H]1[C@H](C(C)(C)C)[C@@H](C(=O)O)N(C(=O)C(C)c2ccccc2)[C@H]1c1ccccc1 (relative stereo) [Example 11, (2S,3S,4S,5S)-3-tert-butyl-4-({[2-methoxy-4-(trifluoromethyl)phenyl]methyl}amino)-5-phenyl-1-[(2R*)-2-phenylpropanoyl]pyrrolidine-2-carboxylic acid]
EC50 [2]: 1000 to 10000 nM | EC50 [3]: 1000 to 10000 nM | Maximum % activity (with co-corrector) (with co-corrector (2 μM)): +++ (≥350) | Emax (without co-corrector): 100 to 200%

COc1ccc(C(C)(C)C)cc1CN[C@H]1[C@H](C(C)(C)C)[C@@H](C(=O)O)N(C(=O)[C@H]2OCC[C@H]2C(C)C)[C@H]1c1ccccc1 (relative stereo) [Example 23, (2S,3S,4S,5S)-3-tert-butyl-4-{[(5-tert-butyl-2-methoxyphenyl)methyl]amino}-5-phenyl-1-[(2S*,3S*)-3-(propan-2-yl)oxolane-2-carbonyl]pyrrolidine-2-carboxylic acid]
EC50 [2]: 1000 to 10000 nM | EC50 [3]: < 1000 nM | Maximum % activity (with co-corrector) (with co-corrector (2 μM)): +++ (≥350) | Emax (without co-corrector): > 200%

COc1nc(C(C)(C)C)ccc1CN[C@H]1[C@H](C(C)(C)C)[C@@H](C(=O)O)N(C(=O)C2CCCC(F)(F)C2)[C@H]1c1ccccc1 (relative stereo) [Example 53, (2S,3S,4S,5S)-3-tert-butyl-4-{[(6-tert-butyl-2-methoxypyridin-3-yl)methyl]amino}-1-[(1R*)-3,3-difluorocyclohexane-1-carbonyl]-5-phenylpyrrolidine-2-carboxylic acid]
EC50 [2]: 1000 to 10000 nM | EC50 [3]: < 1000 nM | Maximum % activity (with co-corrector) (with co-corrector (2 μM)): +++ (≥350) | Emax (without co-corrector): > 200%

COc1ccc(C(C)(C)C)cc1CN[C@H]1[C@H](C(C)(C)C)[C@@H](C(=O)O)N(C(=O)C2CCCCO2)[C@H]1c1ccccc1C(C)C (relative stereo) [Example 62, (2S,3S,4S,5S)-3-tert-butyl-4-{[(5-tert-butyl-2-methoxyphenyl)methyl]amino}-1-[(2S*)-oxane-2-carbonyl]-5-[2-(propan-2-yl)phenyl]pyrrolidine-2-carboxylic acid]
EC50 [2]: < 1000 nM | EC50 [3]: < 1000 nM | Maximum % activity (with co-corrector) (with co-corrector (2 μM)): +++ (≥350) | Emax (without co-corrector): > 200%

COc1ccc(C(C)(C)C)cc1CN[C@H]1[C@H](C(C)(C)C)[C@@H](C(=O)O)N(C(=O)[C@@H]2C[C@H]3CC[C@@H]2O3)[C@H]1c1ccccc1C(C)C (relative stereo) [Example 74, (2S,3S,4S,5S)-3-tert-butyl-4-{[(5-tert-butyl-2-methoxyphenyl)methyl]amino}-1-[(1S*,2R*,4R*)-7-oxabicyclo[2.2.1]heptane-2-carbonyl]-5-[2-(propan-2-yl)phenyl]pyrrolidine-2-carboxylic acid]
EC50 [2]: 1000 to 10000 nM | EC50 [3]: < 1000 nM | Maximum % activity (with co-corrector) (with co-corrector (2 μM)): +++ (≥350) | Emax (without co-corrector): > 200%

COc1ccc(C(F)(F)F)cc1CN[C@@H]1[C@@H](C(C)(C)C)[C@H](C(=O)O)N(C(=O)C(C)Oc2ccccc2)[C@@H]1c1ccccc1 (relative stereo) [Example I-32]
EC50 [2]: 1000 to 10000 nM | EC50 [3]: 1000 to 10000 nM | Maximum % activity (with co-corrector) (with co-corrector (2 μM)): +++ (≥350) | Emax (without co-corrector): < 100%
